Read-outs that look alike come from different tables or passages of the source. Ends that are not written are not given here.
Legend:
Details in all cases: mouse, in vivo
melanoma B16F10 = assay: transplanted melanoma B16F10 in C57BL/6 black mice
Procedure: Hypodermically injecting polypeptides and other drugs into the left axillary region of mice from the experimental groups respectively while administering only equal quantity of physiological saline to the mice from the negative control group. The total medication period was 14 days, during which cyclophosphamide was administered once every other day, taxol once every three days, low-dose polypeptide twice a day and all other drugs once a day.

[1] = system: human cervical cancer HeLa; type: in vivo, nude mice
Procedure: (§2) Taking a certain amount of vigorously growing tumor tissue, grinding the tumor tissue under sterile conditions and preparing cell suspension at the concentration of 1×10^7 cells/ml; then hypodermicaly inoculating 0.1 ml of the cell suspension into the right axillary region of nude mice. Keeping measuring the diameter of the transplanted tumor with a vernier caliper, and randomly dividing the mice into groups when the volume of the tumor reached 100-200 mm^3. […] Measuring the tumor diameter once every other day and recording the body weight of mice simultaneously. Intravenously injecting polypeptides to mice from test groups while administering equal quantity of physiological saline to mice from the negative control group. The total medication period was 14 days. Avastin was adopted to set up a positive control group; it was administered through the tail vein once every three days while all other drugs were administered through the tail vein once a day. Leaving mice for a one-week rest after 14 days' medication, then (21 days after medication) killing the mice, surgically dissecting the tumors and measuring the weight of tumors. The tumor volume (TV) was calculated in accordance with the following formula: TV=½×a×b^2

[2] = system: human prostate cancer DU-145; type: in vivo, nude mice
Procedure: as §2

[3] = type: in vivo, nude mice
Excerpt: (§1) The total medication period was 14 days.

[4] = system: human esophageal cancer Ec109; type: in vivo, nude mice
Excerpt: as §1

[5] = system: human testicular cancer 5637; type: in vivo, nude mice
Excerpt: as §1

sarcoma HT-1080 = type: in vivo, nude mice
Excerpt: as §1

[6] = system: human bladder cancer HT1376; assay: heterotransplanted human bladder cancer HT1376 in nude mice; type: in vivo
Excerpt: as §1

[7] = system: human pancreatic cancer SW-1990; assay: heterotransplanted human pancreatic cancer SW-1990 in nude mice; type: in vivo
Excerpt: as §1

human colon cancer HT-29 = type: in vivo, nude mice
Procedure: as §2

[8] = system: human thyroid cancer SW-579; type: in vivo, nude mice
Procedure: as §2

human renal cancer A498 = type: in vivo, nude mice
Procedure: as §2

[9] = system: human ovarian cancer SK-OV-3; type: in vivo, nude mice
Procedure: as §2

[10] = system: human laryngeal cancer Hep-2; assay: heterotransplanted human laryngeal cancer Hep-2 in nude mice; type: in vivo
Excerpt: as §1

[11] = system: human breast cancer MDA-MB-231
Procedure: (§3) Taking a certain amount of vigorously growing tumor tissue, grinding the tumor tissue under sterile conditions and preparing cell suspension at the concentration of 1×10^7 cells/ml; then hypodermicaly inoculating 0.1 ml of the cell suspension into the right axillary region of nude mice. Keeping measuring the diameter of the transplanted tumor with a vernier caliper, and randomly dividing the mice into groups when the volume of the tumor reached 100-200 mm^3. Observing the dynamic effect of integrin-blocking polypeptides on inhibiting the growth of the tumor by means of documenting the change of tumor diameters. Measuring the tumor diameter once every other day and recording the body weight of mice simultaneously. Intravenously injecting polypeptides to mice from test groups while administering equal quantity of physiological saline to mice from the negative control group. The total medication period was 14 days. Avastin was adopted to set up a positive control group; it was administered through the tail vein once every three days while all other drugs were administered through the tail vein once a day. Leaving mice for a one-week rest after 14 days' medication, then (21 days after medication) killing the mice, surgically dissecting the tumors and measuring the weight of tumors. The tumor volume (TV) was calculated in accordance with the following formula: TV=½×a×b^2
wherein a, b refer to the length and width of the tumor respectively.
The relative tumor volume (RTV) can be calculated in accordance with the results of measurement, using the formula: RTV=Vt/V0, wherein V0 refers to the initial tumor volume measured on the date starting medication (namely d0) while Vt the tumor volume obtained through every measurement. The anti-tumor activity was evaluated by relative proliferation rate T/C (%), which was calculated in accordance with the following formula:
wherein TRTV refers to the RTV of experimental groups; CRTV refers to the RTV of the negative control group.

[12] = system: human gastric cancer MGC-803
Excerpt: Keeping measuring the diameter of the transplanted tumor with a vernier caliper, and randomly dividing the mice into groups when the volume of the tumor reached 100-200 mm^3. Observing the dynamic effect of integrin-blocking polypeptides on inhibiting the growth of the tumor by means of documenting the change of tumor diameters. Measuring the tumor diameter once every other day and recording the body weight of mice simultaneously. Intravenously injecting polypeptides to mice from test groups while administering equal quantity of physiological saline to mice from the negative control group. The total medication period was 14 days. Avastin was adopted to set up a positive control group; it was administered through the tail vein once every three days while all other drugs were administered through the tail vein once a day. Leaving mice for a one-week rest after 14 days' medication, then (21 days after medication) killing the mice, surgically dissecting the tumors and measuring the weight of tumors. The tumor volume (TV) was calculated in accordance with the following formula: TV=½×a×b^2

human lung cancer H460 = system: human lung cancer H460
Procedure: as §3
(§4) Taxol used in the positive control group was administered once every 3 days through tail vein injection, while drugs of all other groups were administered on daily basis through tail vein injection.

[13] = system: human liver cancer SMMC-7721
Procedure: as §3, §4

[14] = system: human endometrial cancer HHUA
Procedure: as §3, §4

[15] = system: human gallbladder cancer GBC-SD
Procedure: as §3
Avastin used in the positive control group was administered once every 2 days through tail vein injection, while drugs of all other groups were administered on daily basis through tail vein injection.

human brain tumor SF763 = system: human brain tumor SF763
Procedure: as §3, §4

[16] = system: human rectal cancer Colo 320
Procedure: as §3, §4

Sequence: FQPVLHLVALNSPLSGGMRGIRGADFQCFQQARAVGLAGTFRAGGGGRGD [polypeptide III]
- body weight of animals, in words (melanoma B16F10): no severe weight change
- toxic and side effects, in words (melanoma B16F10): no severe weight change or obvious toxic and side effects
- body weight of animals, in words [1]: no significant change in body weight
- toxic and side effects, in words [1]: no obvious toxic and side effects
- body weight of animals, in words [2]: no significant change in body weight
- toxic and side effects, in words [2]: no obvious toxic and side effects
- body weight of animals, in words [3]: no significant change in body weight
- body weight of animals, in words [4]: no significant change in body weight
- toxic and side effects, in words [4]: no obvious toxic and side effects
- toxic and side effects, in words [5]: no obvious toxic and side effects
- body weight of animals, in words (sarcoma HT-1080): no significant change in body weight
- toxic and side effects, in words (sarcoma HT-1080): no obvious toxic and side effects
- final weight (sarcoma HT-1080; 0.1875 mg/kg): 22.92 ± 0.57 g
- final weight (sarcoma HT-1080; 0.375 mg/kg): 23.18 ± 0.57 g
- final weight (sarcoma HT-1080; 0.75 mg/kg): 23.07 ± 0.56 g
- body weight of animals, in words [6]: no significant change in body weight
- toxic and side effects, in words [6]: no obvious toxic and side effects
- body weight of animals, in words [7]: no significant change in body weight
- toxic and side effects, in words [7]: no obvious toxic and side effects
- body weight of animals, in words (human colon cancer HT-29): no significant change in body weight
- toxic and side effects, in words (human colon cancer HT-29): no obvious toxic and side effects
- body weight of animals, in words [8]: no significant change in body weight
- toxic and side effects, in words [8]: no obvious toxic and side effects
- body weight of animals, in words (human renal cancer A498): no significant change in body weight
- toxic and side effects, in words (human renal cancer A498): no obvious toxic and side effects
- body weight of animals, in words [9]: no significant change in body weight
- toxic and side effects, in words [9]: no obvious toxic and side effects
- final weight ([9]; 0.1875 mg/kg): 22.83 ± 0.50 g
- final weight ([9]; 0.375 mg/kg): 22.92 ± 0.70 g
- final weight ([9]; 0.75 mg/kg): 22.95 ± 0.64 g
- body weight of animals, in words [10]: no significant change in body weight
- toxic and side effects, in words [10]: no obvious toxic and side effects
- final weight ([10]; 0.1875 mg/kg): 22.94 ± 0.46 g
- final weight ([10]; 0.375 mg/kg): 22.96 ± 0.57 g
- final weight ([10]; 0.75 mg/kg): 23.18 ± 0.51 g
- body weight of animals, in words [11]: no significant change in body weight
- toxic and side effects, in words [11]: no obvious toxic and side effects
- body weight of animals, in words [12]: no significant change in body weight
- toxic and side effects, in words [12]: no obvious toxic and side effects
- body weight of animals, in words (human lung cancer H460): no significant change in body weight
- toxic and side effects, in words (human lung cancer H460): no obvious toxic and side effects
- body weight of animals, in words [13]: no significant change in body weight
- toxic and side effects, in words [13]: no obvious toxic and side effects
- body weight of animals, in words [14]: no significant change in body weight
- toxic and side effects, in words [14]: no obvious toxic and side effects
- body weight of animals, in words [15]: no significant change in body weight
- toxic and side effects, in words [15]: no obvious toxic and side effects
- body weight of animals, in words (human brain tumor SF763): no significant change in body weight
- toxic and side effects, in words (human brain tumor SF763): no obvious toxic and side effects
- final weight (human brain tumor SF763; 0.1875 mg/kg): 23.31 ± 0.57 g
- final weight (human brain tumor SF763; 0.375 mg/kg): 23.37 ± 0.56 g
- final weight (human brain tumor SF763; 0.75 mg/kg): 23.09 ± 0.53 g
- body weight of animals, in words [16]: no significant change in body weight
- toxic and side effects, in words [16]: no obvious toxic and side effects
- final weight ([16]; 0.1875 mg/kg): 22.81 ± 0.60 g
- final weight ([16]; 0.375 mg/kg): 22.93 ± 0.56 g
- final weight ([16]; 0.75 mg/kg): 23.14 ± 0.48 g

Sequence: RGDGGGGFQPVLHLVALNSPLSGGMRGIRGADFQCFQQARAVGLAGTFRA [polypeptide II]
- body weight of animals, in words (melanoma B16F10): no significant change in body weight
- toxic and side effects, in words (melanoma B16F10): no obvious toxic and side effects
- body weight of animals, in words [1]: no significant change in body weight
- toxic and side effects, in words [1]: no obvious toxic and side effects
- body weight of animals, in words [2]: no significant change in body weight
- toxic and side effects, in words [2]: no obvious toxic and side effects
- body weight of animals, in words [3]: no significant change in body weight
- body weight of animals, in words [4]: no significant change in body weight
- toxic and side effects, in words [4]: no obvious toxic and side effects
- toxic and side effects, in words [5]: no obvious toxic and side effects
- body weight of animals, in words (sarcoma HT-1080): no significant change in body weight
- toxic and side effects, in words (sarcoma HT-1080): no obvious toxic and side effects
- final weight (sarcoma HT-1080; 0.75 mg/kg): 22.93 ± 0.46 g
- final weight (sarcoma HT-1080; 1.5 mg/kg): 22.95 ± 0.46 g
- final weight (sarcoma HT-1080; 3 mg/kg): 23.04 ± 0.55 g
- body weight of animals, in words [6]: no significant change in body weight
- toxic and side effects, in words [6]: no obvious toxic and side effects
- body weight of animals, in words [7]: no significant change in body weight
- toxic and side effects, in words [7]: no obvious toxic and side effects
- body weight of animals, in words (human colon cancer HT-29): no significant change in body weight
- toxic and side effects, in words (human colon cancer HT-29): no obvious toxic and side effects
- body weight of animals, in words [8]: no significant change in body weight
- toxic and side effects, in words [8]: no obvious toxic and side effects
- body weight of animals, in words (human renal cancer A498): no significant change in body weight
- toxic and side effects, in words (human renal cancer A498): no obvious toxic and side effects
- body weight of animals, in words [9]: no significant change in body weight
- toxic and side effects, in words [9]: no obvious toxic and side effects
- final weight ([9]; 0.75 mg/kg): 23.07 ± 0.50 g
- final weight ([9]; 1.5 mg/kg): 23.32 ± 0.50 g
- final weight ([9]; 3 mg/kg): 22.97 ± 0.65 g
- body weight of animals, in words [10]: no significant change in body weight
- toxic and side effects, in words [10]: no obvious toxic and side effects
- final weight ([10]; 0.75 mg/kg): 22.88 ± 0.70 g
- final weight ([10]; 1.5 mg/kg): 22.98 ± 0.60 g
- final weight ([10]; 3 mg/kg): 22.66 ± 0.61 g
- body weight of animals, in words [11]: no significant change in body weight
- toxic and side effects, in words [11]: no obvious toxic and side effects
- body weight of animals, in words [12]: no significant change in body weight
- toxic and side effects, in words [12]: no obvious toxic and side effects
- body weight of animals, in words (human lung cancer H460): no significant change in body weight
- toxic and side effects, in words (human lung cancer H460): no obvious toxic and side effects
- body weight of animals, in words [13]: no significant change in body weight
- toxic and side effects, in words [13]: no obvious toxic and side effects
- body weight of animals, in words [14]: no significant change in body weight
- toxic and side effects, in words [14]: no obvious toxic and side effects
- body weight of animals, in words [15]: no significant change in body weight
- toxic and side effects, in words [15]: no obvious toxic and side effects
- body weight of animals, in words (human brain tumor SF763): no significant change in body weight
- toxic and side effects, in words (human brain tumor SF763): no obvious toxic and side effects
- final weight (human brain tumor SF763; 0.75 mg/kg): 22.95 ± 0.52 g
- final weight (human brain tumor SF763; 1.5 mg/kg): 22.88 ± 0.52 g
- final weight (human brain tumor SF763; 3 mg/kg): 23.24 ± 0.66 g
- body weight of animals, in words [16]: no significant change in body weight
- toxic and side effects, in words [16]: no obvious toxic and side effects
- final weight ([16]; 0.75 mg/kg): 22.85 ± 0.61 g
- final weight ([16]; 1.5 mg/kg): 23.10 ± 0.61 g
- final weight ([16]; 3 mg/kg): 22.99 ± 0.37 g
